Data on five compounds can be found in PubChem BioAssay (NCI).

Structures are written as SMILES. Values joined by “and” are separate entries in the source; they are usually repeats but may differ in a detail not shown here. Equal values may be shown once.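 Each compound was tested at five concentrations against cells in 96-well plates for 48 hours. GI50 is the concentration that inhibits growth by half. TGI: total growth inhibition.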 Bounds are passed on as bounds.

Holding throughout (test): NCI-60 cell line screen, 48 h
In assay [1] the test system is BT-549 breast.
Assay [2] relates to HCC-2998 colon.
In assay [3] the test system is HCT-15 colon.
The test system of assay [4] is HT29 colon.
The test system of assay [5] is M14 melanoma.
Assay [6] deals with NCI-H522 lung.
For assay [7], the system named is OVCAR-3 ovarian.
Assay [8] relates to SF-295 CNS.
The subject of assay [9] is SNB-75 CNS.
For assay [10], the system named is TK-10 renal.

For `COc1cc(/C=C2\C(=O)N(c3ccccc3)c3ccccc32)cc(OC)c1OC`, the GI50 was 15.5 µM in assay [1]; 10.6 µM in assay [2]; 4.37 µM in assay [3]; 3.7 µM in assay [4]; 11.3 µM in assay [5]; 6.31 µM in [6]. The GI50 in [7] is 5.93 µM; in [8], 17.8 µM; in [9], 4.82 µM; in [10] it was 16.3 µM. Besides, the TGI in [1] stood at 47.4 µM; in assay [2], 23.9 µM; in assay [3] it was 17.1 µM; in [4], 13.9 µM; in assay [5] it was 26.9 µM; in assay [6], 23.3 µM. Moreover, the TGI in assay [7] was 26.1 µM; in assay [8], 81.3 µM; in assay [9], 18.8 µM; in assay [10], 37.3 µM.
On to `OCC1OC(n2cnc3c2NC=NC[C@H]3O)CC1O` (some centres not stated), for which the TGI in assay [1] was > 500 µM; in assay [2], 402 µM and > 588 µM; in assay [3] it was 500 µM and > 588 µM; in [4], 474 µM and > 588 µM; in [5], 500 µM and > 588 µM; in assay [6], 500 µM and > 588 µM. For the same compound, the TGI is 500 µM and > 588 µM in assay [7]; 475 µM and > 588 µM in assay [8]; 498 µM and > 588 µM in [9]; > 500 µM in assay [10]. The GI50 in assay [2] is > 588 µM; in assay [3], > 588 µM; in assay [4] it was 469 µM and > 588 µM; in [5], > 588 µM; in [6] it was > 588 µM; in assay [7], > 588 µM. The GI50 in assay [8] and in assay [9] was > 588 µM throughout.
In the case of `N=c1n(Cc2ccccc2)c(N)cc(=O)n1Cc1ccccc1`, the GI50 in [1] is 2.65 µM; in [2], 4.96 µM; in assay [3] it was 3.49 µM; in [4], 3.81 µM; in assay [5], 4.72 µM; in [6] it was 0.503 µM. Besides, the GI50 in assay [7] was 3.34 µM; in assay [8] it was 2.68 µM; in assay [9] it was 3.08 µM; in assay [10] it was 2.22 µM. Besides, the TGI in [1] came out at 10.3 µM; in assay [2], 29.1 µM; in [3], 12.3 µM; in [4], 12.8 µM; in [5] it was 17.8 µM; in assay [6] it was 2.42 µM. The TGI in assay [7] came out at 8.43 µM; in [8], 19.1 µM; in assay [9], 16.1 µM; in assay [10], 7.47 µM.
Take `S=C(c1ccc2c(c1)OCO2)N1CCN(c2cccc(Cl)c2)CC1`: the GI50 was 9.32 µM in [1]; 1.27 µM in [2]; 0.524 µM in assay [3]; 0.406 µM in assay [4]; 0.472 µM in [5]; 0.382 µM in assay [6]. Also, the GI50 in assay [7] was 0.338 µM; in [8] it was 0.387 µM; in [9] it was 0.572 µM; in [10] it was 4.55 µM. Besides, the TGI in assay [1] is > 100 µM; in assay [2], 16.4 µM; in assay [3], > 69.3 µM; in assay [4], > 100 µM; in [5], > 100 µM; in [7], 1.23 µM. Besides, the results for the TGI in assay [8], in assay [9] and in assay [10] were > 40.9 µM, > 27.4 µM and > 100 µM, respectively.
With `CCCC(=O)Nc1ccc2c(c1)CN1C(=O)c3ccccc3C1=N2`, the TGI in [1], in assay [2], in assay [3], in assay [4], in [5] and in assay [6] was > 100 µM in each case. For the same compound, the TGI in assay [7], in assay [8], in assay [9] and in assay [10] was > 100 µM in each case.
